According to patent publication US20260262643A1, “HERBICIDAL BENZOXAZINES” (FMC CORPORATION, priority 2022, published 2026):
Read-outs that look alike come from different tables or passages of the source.

Legend:
corn [1] = experiment: Test A preemergence; assay type: in vivo, Zea mays; conditions: Zea mays, pre-emergence, 240 h; for Corn plant response rating (crop injury, 0 = no effect, 100 = complete kill) at 125 g/ha: 125 g ai/ha, visual injury after 10 days, 0 to 100 scale, 0 is no effect, 100 is complete control; for Corn plant response rating (crop injury, 0 = no effect, 100 = complete kill) at 500 g/ha: 500 g ai/ha, 0 to 100 scale (0 no effect, 100 complete control), 10 days
Method in brief: (§1)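 Seeds in loam–sand blend received a directed preemergence soil spray of compound in non-phytotoxic solvent with surfactant; postemergence plants (2–10 cm, one- to two-leaf stage) were sprayed with the same formulation. After 10 days in greenhouse, injury was rated visually versus untreated controls, 0 (no effect) to 100 (complete control).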

foxtail, giant [2] = experiment: Test A preemergence; assay type: in vivo, Setaria faberi; conditions: Setaria faberi, pre-emergence, 240 h, read-out: Plant response rating, Foxtail, Giant; for pest or weed control at 125 g/ha: 125 g ai/ha, visual injury after 10 days, 0 to 100 scale, 0 is no effect, 100 is complete control; for pest or weed control at 500 g/ha: 500 g ai/ha, 0 to 100 scale (0 no effect, 100 complete control), 10 days
Method in brief: as §1

oat, wild = experiment: Test A preemergence; assay type: in vivo, Avena fatua; conditions: Avena fatua, pre-emergence, 240 h, read-out: Plant response rating, Oat, Wild; for pest or weed control at 125 g/ha: 125 g ai/ha, visual injury after 10 days, 0 to 100 scale, 0 is no effect, 100 is complete control; for pest or weed control at 500 g/ha: 500 g ai/ha, 0 to 100 scale (0 no effect, 100 complete control), 10 days
Method in brief: as §1

ragweed = experiment: Test A preemergence; assay type: in vivo, Ambrosia artemisiifolia; conditions: Ambrosia artemisiifolia, pre-emergence, 240 h, read-out: Plant response rating, Ragweed; for pest or weed control at 125 g/ha: 125 g ai/ha, visual injury after 10 days, 0 to 100 scale, 0 is no effect, 100 is complete control; for pest or weed control at 500 g/ha: 500 g ai/ha, 0 to 100 scale (0 no effect, 100 complete control), 10 days
Method in brief: as §1

wheat [3] = experiment: Test A preemergence; assay type: in vivo, Triticum aestivum; conditions: Triticum aestivum, pre-emergence, 240 h, read-out: Plant response rating, Wheat; for plant injury at 125 g/ha: 125 g ai/ha, visual injury after 10 days, 0 to 100 scale, 0 is no effect, 100 is complete control; for plant injury at 500 g/ha: 500 g ai/ha, 0 to 100 scale (0 no effect, 100 complete control), 10 days
Method in brief: as §1

corn [4] = experiment: Test A postemergence; assay type: in vivo, Zea mays; conditions: Zea mays, post-emergence, 240 h; for Corn plant response rating (crop injury, 0 = no effect, 100 = complete kill) at 125 g/ha: 125 g ai/ha; for Corn plant response rating (crop injury, 0 = no effect, 100 = complete kill) at 500 g/ha: 500 g ai/ha
Method in brief: as §1

foxtail, giant [5] = experiment: Test A postemergence; assay type: in vivo, Setaria faberi; conditions: Setaria faberi, post-emergence, 240 h, read-out: Plant response rating, Foxtail, Giant; for pest or weed control at 125 g/ha: 125 g ai/ha; for pest or weed control at 500 g/ha: 500 g ai/ha
Method in brief: as §1

kochia = experiment: Test A postemergence; assay type: in vivo, Bassia scoparia; conditions: Bassia scoparia, post-emergence, 240 h, read-out: Plant response rating, Kochia; for pest or weed control at 125 g/ha: 125 g ai/ha; for pest or weed control at 500 g/ha: 500 g ai/ha
Method in brief: as §1

ryegrass, Italian = experiment: Test A postemergence; assay type: in vivo, Lolium multiflorum; conditions: Lolium multiflorum, post-emergence, 240 h, read-out: Plant response rating, Ryegrass, Italian; for pest or weed control at 500 g/ha: 500 g ai/ha
Method in brief: as §1

soybean = experiment: Test A postemergence; assay type: in vivo, Glycine max; conditions: Glycine max, post-emergence, 240 h, read-out: Plant response rating, Soybean; for plant injury at 500 g/ha: 500 g ai/ha
Method in brief: as §1

wheat [6] = experiment: Test A postemergence; assay type: in vivo, Triticum aestivum; conditions: Triticum aestivum, post-emergence, 240 h, read-out: Plant response rating, Wheat; for plant injury at 500 g/ha: 500 g ai/ha
Method in brief: as §1

galium = experiment: Test A postemergence; assay type: in vivo, Galium aparine; conditions: Galium, post-emergence, 240 h, read-out: Plant response rating, Galium; for pest or weed control at 125 g/ha: 125 g ai/ha; for pest or weed control at 500 g/ha: 500 g ai/ha
Method in brief: as §1

barnyardgrass = experiment: Test B flooded paddy test; assay type: in vivo, Echinochloa crus-galli; conditions: Echinochloa crus-galli, 312 h, 250 g ai/ha, Flood, 13 days, 0 to 100 scale (0 no effect, 100 complete control); read-out: Plant response rating, Barnyardgrass
Method in brief: (§2)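 Flooded to 3 cm at treatment time, 2-leaf plants got the test compound applied straight into the paddy water. They then stayed under constant flood in a greenhouse for 13 days. Ratings used a 0 to 100 visual scale.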

ducksalad = experiment: Test B flooded paddy test; assay type: in vivo, Heteranthera limosa; conditions: Heteranthera limosa, 312 h, 250 g ai/ha, Flood, 13 days, 0 to 100 scale (0 no effect, 100 complete control); read-out: Plant response rating, Ducksalad
Method in brief: as §2

rice = experiment: Test B flooded paddy test; assay type: in vivo, Oryza sativa; conditions: Oryza sativa, 312 h; 250 g ai/ha, Flood, 13 days, 0 to 100 scale (0 no effect, 100 complete control); read-out: Plant response rating, Rice
Method in brief: as §2

[7] = postemergence, 10 days, visual injury, 0 to 100 scale (0 no effect, 100 complete control)
[8] = 125 g ai/ha, postemergence, 10 days, visual injury, 0 to 100 scale (0 no effect, 100 complete control)

Structure (SMILES) | Corn plant response rating (crop injury, 0 = no effect, 100 = complete kill) at 125 g/ha (corn [1]) [%] | Corn plant response rating (crop injury, 0 = no effect, 100 = complete kill) at 500 g/ha (corn [1]) [%] | pest or weed control at 125 g/ha (foxtail, giant [2]) [%] | pest or weed control at 500 g/ha (foxtail, giant [2]) [%] | pest or weed control at 125 g/ha (oat, wild) [%] | pest or weed control at 500 g/ha (oat, wild) [%] | pest or weed control at 125 g/ha (ragweed) [%] | pest or weed control at 500 g/ha (ragweed) [%] | plant injury at 125 g/ha (wheat [3]) [%] | plant injury at 500 g/ha (wheat [3]) [%] | Corn plant response rating (crop injury, 0 = no effect, 100 = complete kill) at 125 g/ha (corn [4]; [7]) [%] | pest or weed control at 125 g/ha (foxtail, giant [5]; [7]) [%] | pest or weed control at 125 g/ha (kochia; [7]) [%] | pest or weed control at 125 g/ha (galium; [7]) [%] | pest or weed control at 250 g/ha (barnyardgrass) [%] | pest or weed control at 250 g/ha (ducksalad) [%] | plant injury at 250 g/ha (rice) [%] | also measured
C#Cc1ncn(-c2cccc(C(=O)N3C[C@H](C)Oc4c(C)cccc43)c2)n1 [Compound 64, [(2S)-2,3-Dihydro-2,8-dimethyl-4H-1,4-benzoxazin-4-yl][3-(3-ethynyl-1H-1,2,4-triazol-1-yl)phenyl]methanone] | 20 | 50 | 90 | 100 | 30 | 70 | 0 | 0 | 20 | 40 | 10 | 20 | 60 | 90 | 0 | 25 | 0 | Corn plant response rating (crop injury, 0 = no effect, 100 = complete kill) at 500 g/ha (corn [4]; Postemergence, 0 to 100 scale): 80%; pest or weed control at 500 g/ha (foxtail, giant [5]; Postemergence, 0 to 100 scale): 90%; pest or weed control at 500 g/ha (kochia; Postemergence, 0 to 100 scale): 80%; pest or weed control at 125 g/ha (ryegrass, Italian; [8]): 40%; pest or weed control at 500 g/ha (ryegrass, Italian; Postemergence, 0 to 100 scale): 100%; plant injury at 125 g/ha (soybean; [8]): 80%; plant injury at 500 g/ha (soybean; Postemergence, 0 to 100 scale): 100%; plant injury at 125 g/ha (wheat [6]; [8]): 10%; plant injury at 500 g/ha (wheat [6]; Postemergence, 0 to 100 scale): 40%; pest or weed control at 500 g/ha (galium; Postemergence, 0 to 100 scale): 100%
Cc1ccc(-n2cnc(C(C)C)n2)cc1C(=O)N1C[C@H](C)Oc2c(Cl)cccc21 [Compound 73, [(2S)-8-Chloro-2,3-dihydro-2-methyl-4H-1,4-benzoxazin-4-yl][2-methyl-5-[3-(1-methylethyl)-1H-1,2,4-triazol-1-yl]phenyl]methanone] | 60 | 80 | 100 | 100 | 80 | 90 | 30 | 90 | 20 | 80 | 70 | 80 | 90 | 100 | 45 | 70 | 20 | Corn plant response rating (crop injury, 0 = no effect, 100 = complete kill) at 500 g/ha (corn [4]; [7]): 70%; pest or weed control at 500 g/ha (foxtail, giant [5]; [7]): 90%; pest or weed control at 500 g/ha (kochia; [7]): 100%; pest or weed control at 500 g/ha (ryegrass, Italian; [7]): 100%; plant injury at 500 g/ha (soybean; [7]): 100%; plant injury at 500 g/ha (wheat [6]; [7]): 80%; pest or weed control at 500 g/ha (galium; [7]): 100%
